This note sets out measurements from PubChem BioAssay (NCI).

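Protocol summary: plate cells (96-well), add compound at 5 concentrations, incubate 48 h, interpolate endpoints linearly. TGI marks complete inhibition of growth.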 A value given as a limit tells only on which side of the number the result lay.

What all share (assay): NCI anticancer screen, dose series, 48 h
The subject of test [1] is U251 CNS.
Test [2] deals with RPMI-8226 leukemia.
For test [3], the system named is CCRF-CEM leukemia.
Test [4] relates to UO-31 renal.
Test [5] deals with SK-MEL-2 melanoma.
The test system of test [6] is CAKI-1 renal.
The test system of test [7] is OVCAR-8 ovarian.
For test [8], the system named is MDA-MB-435.
Test [9] concerns A498 renal.
The test system of test [10] is A549 NSCLC.

As for `Cc1ccc2c(c1C)C(=O)/C(=C/c1cccc(C)c1C(=O)O)C2`, the TGI is > 100 µM in test [1]; > 100 µM in test [2]; > 100 µM in [3]; > 43 µM in test [4]; > 100 µM in [5]; > 100 µM in [6]. In addition, the TGI in test [7] is > 100 µM; in test [8], > 100 µM; in test [9], 99.2 µM; in test [10], > 100 µM.
`CN(C)CCNC(=O)c1c(O)ccc2c1c1c(n2CCc2ccccc2)C(=O)c2ccccc2C1=O`: the TGI in [1] was 13.9 µM; in [2], 11.6 µM; in test [3] it was 6.43 µM; in [4] it was 13.8 µM; in test [5], 10.7 µM; in test [6] it was 19.2 µM. Moreover, the TGI amounted to 23.4 µM in [7], 5.08 µM in test [8], 31.9 µM in test [9] and 23.2 µM in test [10].
`N#Cc1nc(-c2cccc(-c3nc(C#N)c(N)o3)n2)oc1N`: the TGI is > 100 µM in test [1]; > 100 µM in test [2]; 46.9 µM in [3]; > 100 µM in test [4]; > 100 µM in test [5]; > 100 µM in test [6]. For the same molecule, the TGI in [7], in test [8], in [9] and in test [10] was > 100 µM in each case.
As to `Nc1cc2c3c(cccc3c1)C(=O)N(c1ccc(OCCN3CCCC3)cc1)C2=O`, the TGI was 64.6 µM in test [1]; 56.3 µM in [2]; 69 µM in [3]; 28.6 µM in test [4]; 38 µM in test [5]; > 61.5 µM in [6]. The TGI in test [7] turned out to be 35.8 µM; in test [8], 42.4 µM; in test [9], 91.5 µM; in test [10], 50.8 µM.
Turning to `O=C1C=C(N2CCN(CCOCCO)CC2)C(=O)c2c(O)ccc(O)c21`, the TGI in test [1] is 15.9 µM; in test [2], > 100 µM; in [3], 14.8 µM; in [4] it was 22.6 µM; in test [5] it was 18.5 µM; in test [6], 29.3 µM. Besides, the TGI in [7] was 17.9 µM; in test [8], 3.33 µM; in [9], 27.8 µM; in test [10], 11.4 µM.
As to `CCOC(=O)/C=C/[C@@H](CC)O[Si](C(C)C)(C(C)C)C(C)C`, the TGI was > 100 µM in test [1]; 94.6 µM in test [2]; > 100 µM in [3]; > 100 µM in test [4]; > 100 µM in test [5]; > 100 µM in test [6]. Besides, the TGI in test [7], in test [8], in [9] and in test [10] was > 100 µM throughout.
For `COC(=O)c1ccc(NCC2=C(Br)C(=O)C=CC2=O)cc1Cl`, the TGI in test [1] is 43.6 µM; in [2] it was > 100 µM; in [3], > 100 µM; in test [4], 34.7 µM; in test [5], 52.6 µM; in test [6], 70.6 µM. Also, the TGI was 47.1 µM in test [7], 38.1 µM in [8], > 100 µM in test [9] and > 100 µM in test [10].
`O=C1N(c2ccccc2)C(=S)/C(=C/c2ccc(Cl)cc2)N1c1ccc(Cl)cc1`: the TGI in [1] was 96.6 µM; in test [2], 52.5 µM; in test [3], 61.1 µM; in test [4], > 100 µM; in test [5] it was > 100 µM; in test [6], > 100 µM. For the same molecule, the TGI in [7], in [8], in test [9] and in test [10] was > 100 µM in each case.
On to `O=S(=O)(O)c1cc(S(=O)(=O)O)c2c(N=Nc3ccc(N=Nc4ccccc4)cc3)c(O)ccc2c1`, for which the TGI in [1], in [2], in test [3], in test [4], in [5] and in test [6] was > 100 µM in each case. Besides, the TGI in test [7], in test [8], in test [9] and in [10] was > 100 µM each time.
In the case of `O=C(NCCCCCN1CCC2(CCCCC2)CC1)C(C1CCCCC1)C1CCCCC1`, the TGI in test [1] stood at 8.53 µM; in [2] it was 4.71 µM; in [3] it was 11.9 µM; in test [4], 8.46 µM; in test [5], 4.82 µM; in test [6] it was 11.6 µM. In addition, the TGI in test [7] turned out to be 7.23 µM; in [8], 3.74 µM; in test [9] it was 9.42 µM; in test [10], 16.7 µM.
As for `O=P(O)(O)CN1CCNCCN(CP(=O)(O)O)CC1`, the TGI in test [1] is > 100 µM; in test [2], > 100 µM; in [3] it was > 70.5 µM; in test [4], > 100 µM; in [5], > 100 µM; in test [6], > 100 µM. For the same molecule, the TGI was > 51 µM in [7], > 100 µM in test [8], > 100 µM in [9] and 58.7 µM in test [10].
As to `COc1ccc(-n2cnc3c(NC(Cc4ccccc4)C(=O)O)ncnc32)cc1` (stereo not given), the TGI in [1], in test [2], in test [3], in test [4], in [5] and in [6] was > 100 µM throughout. For the same molecule, the TGI in test [7], in test [8], in test [9] and in test [10] was > 100 µM throughout.
Regarding `Cc1ccc(NC(=O)CC(=O)n2nc(C)c(N=Nc3cccc(C)c3)c2C)cc1`, the TGI in [1], in [2], in test [3], in test [4], in test [5] and in test [6] was > 100 µM throughout. Also, the TGI in [7], in [8], in test [9] and in test [10] was > 100 µM each time.
For `Cc1ccccc1NC(=O)Cc1csc(N=Nc2c(O)[nH]c3ccccc23)n1`, the TGI in [1] was > 1 µM; in test [2], > 100 µM; in test [3], > 100 µM; in [4], > 100 µM; in test [5] it was > 100 µM; in test [6] it was 37.6 µM. For the same molecule, the TGI is 43.1 µM in test [7], > 1 µM in test [8], > 100 µM in test [9] and > 100 µM in [10].
In the case of `COC(=O)c1cc(/C=C\c2cc(OC)ccc2OC)ccc1OC`, the TGI is > 100 µM in [1]; 44.5 µM in test [2]; > 100 µM in test [3]; 75.3 µM in test [4]; 74.2 µM in test [5]; > 100 µM in [6]. Also, the TGI in test [7] is > 100 µM; in test [8], 61.4 µM; in test [9] it was > 100 µM; in [10] it was > 100 µM.
With `CCOC(=O)c1cc(Br)c(-c2cc(C)co2)[nH]1`, the TGI in [1], in test [2], in [3], in [4], in test [5] and in [6] was > 100 µM each time. In addition, the TGI in test [7], in [8], in test [9] and in test [10] was > 100 µM in each case.
Regarding `O=C(Nc1ccc(Cl)cc1)c1cc(S(=O)(=O)Nc2n[nH]c(=O)n2-c2ccccc2)c(S)cc1Cl`, the TGI in test [1], in [2], in test [3], in test [4], in [5] and in test [6] was > 100 µM in each case. Further, the TGI in test [7], in test [8], in [9] and in test [10] was > 100 µM throughout.
As for `CC1(C)CC(=O)C2=C(C1)OC1(CC2c2ccc(Cl)cc2)CC(c2ccc(Cl)cc2)C2=C(CC(C)(C)CC2=O)O1` (stereo not given), the TGI in [1] was > 57.6 µM; in test [2] it was 28.5 µM; in test [3], > 76.7 µM; in [4], 30.7 µM; in test [5], 43.8 µM; in test [6], 52.3 µM. In addition, the TGI in test [7] amounted to 87.5 µM; in test [8], 33.7 µM; in [9], 31 µM; in test [10], 30.9 µM.
Consider `CC[C@@]1(O)C(=O)OCc2c1cc1n(c2=O)Cc2c-1nc1ccccc1c2/C=N\NC(=O)C(N)Cc1c[nH]c2ccccc12` (stereo not given in full), for which the TGI is 5.16 µM in [1]; 17.3 µM in test [2]; 3.44 µM in test [3]; 1.48 µM in [4]; 36.3 µM in test [5]; 2.52 µM in test [6]. The TGI in test [7] was 25 µM; in test [8], > 87.9 µM; in test [9], 2.76 µM; in test [10], 25.9 µM.
With `COc1ccc(CNc2nc3ccccc3nc2C(=O)O)cc1`, the TGI in test [1] is > 100 µM; in [2], 68.2 µM; in [3], > 100 µM; in test [4], > 100 µM; in test [5], > 100 µM; in [6], > 100 µM. Further, the TGI in test [7], in [8], in test [9] and in test [10] was > 100 µM each time.
